# What was measured:
# human PXR = target: T1, human PXR (Homo sapiens, UniProt O75469); assay: PXR assay: PXR mediated CYP3A4 induction in DPX-2 cell line; assay type: cell-based; conditions: DPX-2 cells
# T1 construct: host or cells: DPX-2 cell line (derived from HepG2)
# T1 sequence (O75469 1-434): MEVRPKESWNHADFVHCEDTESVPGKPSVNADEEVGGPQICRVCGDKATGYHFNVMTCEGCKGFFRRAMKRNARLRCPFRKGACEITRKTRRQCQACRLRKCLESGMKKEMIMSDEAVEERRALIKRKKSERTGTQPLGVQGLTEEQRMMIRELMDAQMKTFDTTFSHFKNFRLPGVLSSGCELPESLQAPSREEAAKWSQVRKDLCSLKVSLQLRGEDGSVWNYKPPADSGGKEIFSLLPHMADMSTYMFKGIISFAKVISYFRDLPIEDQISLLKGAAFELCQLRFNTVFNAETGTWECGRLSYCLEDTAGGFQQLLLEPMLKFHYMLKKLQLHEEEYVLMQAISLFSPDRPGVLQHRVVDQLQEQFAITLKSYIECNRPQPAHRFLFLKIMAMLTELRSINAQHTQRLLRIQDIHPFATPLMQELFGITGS
# Description: D. Experimental Protocol for PXR Assay
# The propensity for PXR mediated CYP3A4 induction is assessed using the DPX-2 cell line in vitro. This cell line, which has been licensed from Puracyp Inc. was derived from HepG2 cells and has been stably transfected with genes encoding human PXR as well as a modified luciferase reporter linked to the CYP3A4 promoter region and related distal and proximal enhancers.
# The assay is run in 384 well format and each test article is administered in 11 doses ranging from 0.1 to 60 μM. On day 1, DPX-2 cells which have previously been expanded in-house and cryopreserved are thawed and seeded in tissue culture plates. The following day, media is changed and cells are cultured in media containing test article, vehicle control or the positive control compound, the clinically validated CYP3A4 inducer rifampicin. Cells are cultured in the presence of test article for 48 hours and then cell viability is assessed using fluorescence based assay (Cell Titer-Fluor, Promega) with an EnVision Plate Reader (PerkinElmer). Subsequently, CYP3A4 transactivation, which is proportional to luciferase activity, is measured by reading luminescense using the Promega One-Glo reagent system using the same plate reader.
# Data processing within the Genedata software package allows reporting of max fold induction compared to vehicle control, an EC50 value for CYP3A4 inducers and an 11 point-dose response curve.
# F508del-CFTR = target: T2, F508del-CFTR (Homo sapiens, UniProt P13569, DEL508-508); assay: Membrane potential optical (FLIPR) assay for F508del-CFTR modulators in NIH 3T3 cells; assay type: cell-based; conditions: NIH 3T3 cells expressing F508del; assay A1; read-out: CFTRdF508 Cor 3T3 FLIPR 384 CFTRdF508 MP 3T3 770 EC50
# T2 construct: expressed in transfected cells
# T2 sequence (P13569 with tags, fused parts or gaps DEL508-508): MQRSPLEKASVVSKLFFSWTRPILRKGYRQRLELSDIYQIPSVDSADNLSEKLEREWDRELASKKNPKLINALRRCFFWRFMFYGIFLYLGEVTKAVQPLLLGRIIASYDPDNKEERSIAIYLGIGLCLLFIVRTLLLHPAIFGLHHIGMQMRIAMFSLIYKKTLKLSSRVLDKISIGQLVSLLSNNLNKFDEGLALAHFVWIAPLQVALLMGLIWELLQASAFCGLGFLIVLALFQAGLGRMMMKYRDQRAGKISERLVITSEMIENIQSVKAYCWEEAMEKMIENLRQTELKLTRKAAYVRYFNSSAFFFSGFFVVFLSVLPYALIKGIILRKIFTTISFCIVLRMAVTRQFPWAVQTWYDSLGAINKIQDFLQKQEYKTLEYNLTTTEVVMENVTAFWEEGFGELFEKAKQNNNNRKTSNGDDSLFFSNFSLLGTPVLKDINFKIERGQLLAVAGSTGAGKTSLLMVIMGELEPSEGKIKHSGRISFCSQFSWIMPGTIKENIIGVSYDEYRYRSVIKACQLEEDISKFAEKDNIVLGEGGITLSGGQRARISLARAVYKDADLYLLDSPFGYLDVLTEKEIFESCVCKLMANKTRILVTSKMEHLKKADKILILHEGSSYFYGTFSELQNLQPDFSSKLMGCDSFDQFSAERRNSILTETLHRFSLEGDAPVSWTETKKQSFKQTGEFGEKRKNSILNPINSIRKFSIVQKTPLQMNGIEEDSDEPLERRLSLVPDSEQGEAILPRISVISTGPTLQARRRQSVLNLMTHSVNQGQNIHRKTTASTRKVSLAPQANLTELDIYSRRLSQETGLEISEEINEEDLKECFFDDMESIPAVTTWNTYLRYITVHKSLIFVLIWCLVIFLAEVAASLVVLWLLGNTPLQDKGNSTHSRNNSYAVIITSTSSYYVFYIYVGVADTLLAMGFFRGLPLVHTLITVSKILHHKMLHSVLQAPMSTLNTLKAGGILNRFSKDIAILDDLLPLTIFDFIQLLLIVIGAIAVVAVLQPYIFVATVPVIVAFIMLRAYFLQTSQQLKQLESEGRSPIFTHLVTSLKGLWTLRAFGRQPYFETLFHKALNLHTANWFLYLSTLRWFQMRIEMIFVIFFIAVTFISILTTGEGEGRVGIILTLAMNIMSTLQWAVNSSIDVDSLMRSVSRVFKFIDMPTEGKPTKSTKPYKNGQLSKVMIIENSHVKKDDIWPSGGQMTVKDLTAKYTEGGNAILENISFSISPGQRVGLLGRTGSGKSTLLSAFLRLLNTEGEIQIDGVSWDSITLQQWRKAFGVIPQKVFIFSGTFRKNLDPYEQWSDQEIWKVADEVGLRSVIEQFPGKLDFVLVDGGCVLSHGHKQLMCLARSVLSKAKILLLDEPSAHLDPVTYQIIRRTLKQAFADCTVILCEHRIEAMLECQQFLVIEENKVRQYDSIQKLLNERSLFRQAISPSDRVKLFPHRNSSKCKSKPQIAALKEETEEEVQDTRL
# Excerpt: Membrane Potential Optical Methods for Assaying Properties of F508del-CFTR Modulators
# The assay utilizes fluorescent voltage sensing dyes to measure changes in membrane potential using a fluorescent plate reader (e.g., FLIPR III, Molecular Devices, Inc.) as a readout for increase in functional F508del in NIH 3T3 cells. The driving force for the response is the creation of a chloride ion gradient in conjunction with channel activation and concurrent with compound treatment by a single liquid addition step after the cells have previously been loaded with a voltage sensing dye.
# A1. Identification of F508del-CFTR Modulators
# To identify modulators of F508del, a fluorescence based HTS assay format was developed. This HTS assay utilizes fluorescent voltage sensing dyes to measure changes in membrane potential on the FLIPR III as a measurement for increase in gating (conductance) of F508del NIH 3T3 cells. The driving force for the response is the creation of a chloride ion gradient in conjunction with channel activation and concurrent with compound treatment by a single liquid addition step after the cells have previously been loaded with a voltage sensing dye.
# Bath Solution #1: (in mM) NaCl 160, KCl 4.5, CaCl2 2, MgCl2 1, HEPES 10, pH 7.4 with NaOH, Glucose 10.
# Chloride-free bath solution: Chloride salts in Bath Solution #1 (above) are substituted with gluconate salts.
# NIH3T3 mouse fibroblasts stably expressing F508del were used for optical measurements of membrane potential. The cells were maintained at 37° C. in 5% CO2 and 90% humidity in Dulbecco's modified Eagle's medium supplemented with 2 mM glutamine, 10% fetal bovine serum, 1×NEAA, β-ME, 1× pen/strep, and 25 mM HEPES in 175 cm^2 culture flasks. For all optical assays, the cells were seeded at 12,000 cells/well in 384-well matrigel-coated plates and cultured for 18-24 hrs at 37° C. for the potentiator assay. For the correction assay, the cells were cultured at 37° C. with and without compounds for 18-24 hours.
smiles,measurement,setting,value
"Cc1nn(C)cc1S(=O)(=O)NC(=O)c1ccc(-n2ccc(OCC3(C(F)(F)F)CC3)n2)nc1N1CC(C(C)C)CC1(C)C (racemic) [Compound 41, N-(1,3-dimethylpyrazol-4-yl)sulfonyl-2-(4-isopropyl-2,2-dimethyl-pyrrolidin-1-yl)-6-[3-[[1-(trifluoromethyl)cyclopropyl]methoxy]pyrazol-1-yl]pyridine-3-carboxamide]",CYP3A4 Induction-PXR human PXR internal Max % Activity,human PXR,4%
same,EC50,F508del-CFTR,120 nM
"Cc1nn(C)cc1S(=O)(=O)NC(=O)c1ccc(-n2ccc(OCC3(C(F)(F)F)CC3)n2)nc1N1C[C@@H](C(C)C)CC1(C)C (single isomer, unassigned) [Compound 47, N-(1,3-dimethylpyrazol-4-yl)sulfonyl-2-(4-isopropyl-2,2-dimethyl-pyrrolidin-1-yl)-6-[3-[[1-(trifluoromethyl)cyclopropyl]methoxy]pyrazol-1-yl]pyridine-3-carboxamide]",EC50,F508del-CFTR,60 nM
"Cc1nn(C)cc1S(=O)(=O)NC(=O)c1ccc(-n2ccc(OCC3(C(F)(F)F)CC3)n2)nc1N1C[C@@H](C(C)C)CC1(C)C (single isomer, unassigned) [Compound 46, N-(1,3-dimethylpyrazol-4-yl)sulfonyl-2-(4-isopropyl-2,2-dimethyl-pyrrolidin-1-yl)-6-[3-[[1-(trifluoromethyl)cyclopropyl]methoxy]pyrazol-1-yl]pyridine-3-carboxamide]",EC50,F508del-CFTR,390 nM
"C[C@@H]1CN(c2nc(-n3ccc(OCCC4(C(F)(F)F)CC4)n3)ccc2C(=O)NS(=O)(=O)c2cn(C)nc2C(F)(F)F)C(C)(C)C1 [Compound 55, N-[1-methyl-3-(trifluoromethyl)pyrazol-4-yl]sulfonyl-6-[3-[2-[1-(trifluoromethyl)cyclopropyl]ethoxy]pyrazol-1-yl]-2-[(4S)-2,2,4-trimethylpyrrolidin-1-yl]pyridine-3-carboxamide]",CYP3A4 Induction-PXR human PXR internal Max % Activity,human PXR,9%
same,EC50,F508del-CFTR,100 nM
"Cc1c(S(=O)(=O)NC(=O)c2ccc(-n3ccc(OCC(C4CC4)C4CC4)n3)nc2N2C[C@@H](C)CC2(C)C)cnn1C [Compound 33, 6-[3-(2,2-dicyclopropylethoxy)pyrazol-1-yl]-N-(1,5-dimethylpyrazol-4-yl)sulfonyl-2-[(4S)-2,2,4-trimethylpyrrolidin-1-yl]pyridine-3-carboxamide]",CYP3A4 Induction-PXR human PXR internal Max % Activity,human PXR,5%
same,EC50,F508del-CFTR,370 nM
"CCC1CN(c2nc(-n3ccc(OCC4(C(F)(F)F)CC4)n3)ccc2C(=O)NS(=O)(=O)c2cn(C)nc2C)C(C)(C)C1 (centres unmarked) [Compound 49, N-(1,3-dimethylpyrazol-4-yl)sulfonyl-2-(4-ethyl-2,2-dimethyl-pyrrolidin-1-yl)-6-[3-[[1-(trifluoromethyl)cyclopropyl]methoxy]pyrazol-1-yl]pyridine-3-carboxamide]",EC50,F508del-CFTR,190 nM
"Cc1c(S(=O)(=O)NC(=O)c2ccc(-n3ccc(OCC4(C)CC4(F)F)n3)nc2N2C[C@@H](C)CC2(C)C)cnn1C (stereo partly drawn) [Compound 24, 6-[3-[(2,2-Difluoro-1-methyl-cyclopropyl)methoxy]pyrazol-1-yl]-N-(1,5-dimethylpyrazol-4-yl)sulfonyl-2-[(4S)-2,2,4-trimethylpyrrolidin-1-yl]pyridine-3-carboxamide]",CYP3A4 Induction-PXR human PXR internal Max % Activity,human PXR,6%
same,EC50,F508del-CFTR,710 nM
"Cc1nn(C)cc1S(=O)(=O)NC(=O)c1ccc(-n2ccc(OCC3(C(F)(F)F)CC3)n2)nc1N1CC(C)CC1(C)C (centres unmarked) [Compound 42, N-(1,3-dimethylpyrazol-4-yl)sulfonyl-6-[3-[[1-(trifluoromethyl)cyclopropyl]methoxy]pyrazol-1-yl]-2-(2,2,4-trimethylpyrrolidin-1-yl)pyridine-3-carboxamide]",CYP3A4 Induction-PXR human PXR internal Max % Activity,human PXR,16%
same,EC50,F508del-CFTR,610 nM
"Cc1nn(C)cc1S(=O)(=O)NC(=O)c1ccc(-n2ccc(OCC3(C(F)(F)F)CC3)n2)nc1N1CC(C)CC12CC2 (centres unmarked) [Compound 44, N-(1,3-dimethylpyrazol-4-yl)sulfonyl-2-(6-methyl-4-azaspiro[2.4]heptan-4-yl)-6-[3-[[1-(trifluoromethyl)cyclopropyl]methoxy]pyrazol-1-yl]pyridine-3-carboxamide]",EC50,F508del-CFTR,390 nM
"C[C@@H]1CN(c2nc(-n3ccc(OC4CC4)n3)ccc2C(=O)NS(=O)(=O)c2cnn(C)c2)C(C)(C)C1 [Compound 22, 6-[3-(Cyclopropoxy)pyrazol-1-yl]-N-(1-methylpyrazol-4-yl)sulfonyl-2-[(4S)-2,2,4-trimethylpyrrolidin-1-yl]pyridine-3-carboxamide]",EC50,F508del-CFTR,2100 nM
"Cc1nn(C)cc1S(=O)(=O)NC(=O)c1ccc(-n2ccc(OCCC3C4(CC4)C34CC4)n2)nc1N1C[C@@H](C)CC1(C)C [Compound 56, N-(1,3-Dimethylpyrazol-4-yl)sulfonyl-6-[3-(2-dispiro[2.0.2.1]heptan-7-ylethoxy)pyrazol-1-yl]-2-[(4S)-2,2,4-trimethylpyrrolidin-1-yl]pyridine-3-carboxamide]",CYP3A4 Induction-PXR human PXR internal Max % Activity,human PXR,11%
"Cc1nn(C)cc1S(=O)(=O)NC(=O)c1ccc(-n2ccc(OCC3(C(F)(F)F)CC3)n2)nc1N1CC(C(C)(C)C)CC1(C)C (racemic) [Compound 40, 2-(4-tert-Butyl-2,2-dimethyl-pyrrolidin-1-yl)-N-(1,3-dimethylpyrazol-4-yl)sulfonyl-6-[3-[[1-(trifluoromethyl)cyclopropyl]methoxy]pyrazol-1-yl]pyridine-3-carboxamide]",CYP3A4 Induction-PXR human PXR internal Max % Activity,human PXR,13%
same,EC50,F508del-CFTR,80 nM
"Cc1nn(C)cc1S(=O)(=O)NC(=O)c1ccc(-n2ccc(OCC3(C(F)(F)F)CC3)n2)nc1N1CC(C)CC12CCC2 (centres unmarked) [Compound 43, N-(1,3-dimethylpyrazol-4-yl)sulfonyl-2-(7-methyl-5-azaspiro[3.4]octan-5-yl)-6-[3-[[1-(trifluoromethyl)cyclopropyl]methoxy]pyrazol-1-yl]pyridine-3-carboxamide]",CYP3A4 Induction-PXR human PXR internal Max % Activity,human PXR,4%
same,EC50,F508del-CFTR,220 nM
"Cc1nn(C)cc1S(=O)(=O)NC(=O)c1ccc(-n2ccc(OCC3(C(F)(F)F)CC3)n2)nc1N1CC(C(C)(C)C)CC1(C)C (single isomer, unassigned) [Compound 53, 2-(4-tert-butyl-2,2-dimethyl-pyrrolidin-1-yl)-N-(1,3-dimethylpyrazol-4-yl)sulfonyl-6-[3-[[1-(trifluoromethyl)cyclopropyl]methoxy]pyrazol-1-yl]pyridine-3-carboxamide]",CYP3A4 Induction-PXR human PXR internal Max % Activity,human PXR,7%
same,EC50,F508del-CFTR,390 nM
"[2H]C([2H])([2H])[C@@H]1CN(c2nc(-n3ccc(OCC(C)(C)C(F)(F)F)n3)ccc2C(=O)NS(=O)(=O)c2cn(C)nc2C)C(C)(C)C1([2H])[2H] [Compound 29, (S)—N-((1,3-dimethyl-1H-pyrazol-4-yl)sulfonyl)-2-(2,2-dimethyl-4-(methyl-d3)pyrrolidin-1-yl-3,3-d2)-6-(3-(3,3,3-trifluoro-2,2-dimethylpropoxy)-1H-pyrazol-1-yl)nicotinamide]",EC50,F508del-CFTR,110 nM
